The source made the active and inactive calls. No rule for the calls is given here.
System: rodent lifetime carcinogenesis bioassay, tumor incidence TD50
Assay: chronic cancer bioassays in animals – CPDB, compiled studies (AID 1745844)
Settings: for TD50: in feed, dosed 103 weeks

Nc1cccc2c(N)cccc12
TD50 (mouse, strain B6C3F1, females, site: any site (literature study), lesion: several types, types named in the paper, study length 105 weeks): 223 mg/kg/day | TD50 (mouse, strain B6C3F1, females, site: liver + lung + thyroid gland, lesion: hepatocellular adenoma + hepatocellular carcinoma + alveolar/bronchiolar adenoma + alveolar/bronchiolar carcinoma + c-cell adeno, study length 105 weeks): 66.6 mg/kg/day | TD50 (mouse, strain B6C3F1, females, site: liver, lesion: hepatocellular adenoma + hepatocellular carcinoma + neoplastic nodule, study length 105 weeks): 129 mg/kg/day | TD50 (mouse, strain B6C3F1, females, site: liver, lesion: hepatocellular adenoma + hepatocellular carcinoma, study length 105 weeks): 129 mg/kg/day | TD50 (mouse, strain B6C3F1, females, site: liver, lesion: hepatocellular carcinoma, study length 105 weeks): 115 mg/kg/day | TD50 (mouse, strain B6C3F1, females, site: lung, lesion: alveolar/bronchiolar adenoma + alveolar/bronchiolar carcinoma, study length 105 weeks): 331 mg/kg/day | TD50 (mouse, strain B6C3F1, females, site: thyroid gland, lesion: c-cell adenoma + c-cell carcinoma, study length 105 weeks): 936 mg/kg/day | TD50 (mouse, strain B6C3F1, females, site: thyroid gland, lesion: c-cell carcinoma, study length 105 weeks): 1320 mg/kg/day | TD50 (mouse, strain B6C3F1, females, site: thyroid gland, lesion: follicular-cell adenoma + papillary cystadenoma, NOS + papillary adenoma, study length 105 weeks): 327 mg/kg/day | TD50 (mouse, strain B6C3F1, males, site: any site (literature study), lesion: several types, types named in the paper, study length 105 weeks): 583 mg/kg/day | TD50 (mouse, strain B6C3F1, males, site: liver, lesion: hepatocellular adenoma + hepatocellular carcinoma + neoplastic nodule, study length 105 weeks): 1640 mg/kg/day | TD50 (mouse, strain B6C3F1, males, site: thyroid gland, lesion: c-cell adenoma + c-cell carcinoma + follicular-cell adenoma + papillary cystadenoma, NOS + papillary adenoma, study length 105 weeks): 217 mg/kg/day | TD50 (mouse, strain B6C3F1, males, site: thyroid gland, lesion: c-cell adenoma + c-cell carcinoma, study length 105 weeks): 1260 mg/kg/day | TD50 (mouse, strain B6C3F1, males, site: thyroid gland, lesion: c-cell carcinoma, study length 105 weeks): 1910 mg/kg/day | TD50 (mouse, strain B6C3F1, males, site: thyroid gland, lesion: follicular-cell adenoma + papillary cystadenoma, NOS + papillary adenoma, study length 105 weeks): 276 mg/kg/day | TD50 (rat, strain Fischer 344, females, site: any site (literature study), lesion: several types, types named in the paper, study length 106 weeks): 55.8 mg/kg/day | TD50 (rat, strain Fischer 344, females, site: clitoral gland + uterus, lesion: adenoma, NOS + carcinoma, NOS + endometrial stromal polyp, study length 106 weeks): 50.8 mg/kg/day | TD50 (rat, strain Fischer 344, females, site: clitoral gland, lesion: adenoma, NOS + carcinoma, NOS, study length 106 weeks): 137 mg/kg/day | TD50 (rat, strain Fischer 344, females, site: liver, lesion: hepatocellular adenoma + hepatocellular carcinoma + neoplastic nodule, study length 106 weeks): 236 mg/kg/day | TD50 (rat, strain Fischer 344, females, site: thyroid gland, lesion: c-cell adenoma + c-cell carcinoma, study length 106 weeks): 57.6 mg/kg/day | TD50 (rat, strain Fischer 344, females, site: uterus, lesion: endometrial stromal polyp, study length 106 weeks): 69.6 mg/kg/day | TD50 (rat, strain Fischer 344, males, site: any site (literature study), lesion: several types, types named in the paper, study length 106 weeks): 48.1 mg/kg/day (inactive) | TD50 (rat, strain Fischer 344, males, site: liver, lesion: hepatocellular adenoma + hepatocellular carcinoma + neoplastic nodule, study length 106 weeks): 1040 mg/kg/day

CCCCCN(N=O)C(=N)N[N+](=O)[O-]
carcinogen call (rat, strain Wistar, males, in drinking water, site: stomach, glandular, lesion: one or several types, types not named, dosed 52 weeks, study length 78 weeks): negative (inactive)

— PubChem BioAssay AID1745844 (Carcinogenic Potency Database (CPDB), 2022)
